The subject of assay [1] is U2OS cells. The assay can be described thus: Titre Blue cell viability assay, U2OS cells. To be noted: Homo sapiens, U2OS. In kind it is cell-based.
In assay [2] the test system is HSP72 in U2OS cells. Nature of the assay: Cell-based ELISA (Cellisa) assay, U2OS cells: inhibition of 17-AAG-induced HSP72. To be noted: Homo sapiens; U2OS cells (Examples 1-168). The procedure: U2OS cells (5-8×10^4 cells/mL) or SK-OV-3 cells (5-8×10^4 cells/mL) were seeded into 96-well plates and incubated at 37° C. for 48 h. Compounds were then added at a range of concentrations and incubated for 1 h before addition of 17-AAG (250 nM). Cells were then incubated for 18 h. The medium was removed washed 2× with PBS and cells were then fixed with fixing solution (4% paraformaldehyde, 0.3% TritonX-100 in PBS) for 30 min at 4° C. The plates were then washed 2× with PBS before blocking with 5% milk for 30 min at 37° C. After washing the plates 4× with 0.1% Tween-20/deionised water, HSP72 antibody (SPA-810, Enzo Life) was added for 1.5 h at 37° C. Following 4× washes, the plates were incubated with europium-labelled anti-mouse antibody (0.6 ug/ml) in Delfia assay buffer (Perkin Elmer) for 1 h at 37° C. After washing the plates, Delfia enhancement solution was added, shaken for 10 min before reading in the Envision plate reader (Perkin-Elmer) with excitation at 340 nm and emission at 615 nm. The plates were washed again before protein determination using the bicinchoninic acid assay (BCA assay, Pierce Biotechnology). The europium counts were normalised for the amount of protein in each well. The 50% inhibitory concentration value of the compound was then calculated.

Turning to `Cc1ccc(NC(=O)c2ccc3c(c2)OCCO3)cc1NC(=O)c1ccc2sccc2c1` [Example 18, N-(3-(benzo[b]thiophene-5-carboxamido)-4-methylphenyl)-2,3-dihydrobenzo[b][1,4]dioxine-6-carboxamide], the results for the IC50 in assay [1] and in assay [2] were 0.034 µM and 0.062 µM, respectively.

For the molecule `Cc1ccc(NC(=O)c2ccc3c(c2)OCCO3)cc1NC(=O)c1ccc(OCc2ccccn2)cc1` [Example 19, N-(4-methyl-3-(4-(pyridin-2-ylmethoxy)benzamido)phenyl)-2,3-dihydrobenzo[b][1,4]dioxine-6-carboxamide], the IC50 was 0.32 µM in assay [1] and 0.289 µM in assay [2].

As to `Cc1ccc(NC(=O)c2ccc3c(c2)OCCO3)cc1NC(=O)c1ccc2nc(OCCNC(=O)OC(C)(C)C)ccc2c1` [Example 21, tert-butyl (2-((6-((5-(2,3-dihydrobenzo[b][1,4]dioxine-6-carboxamido)-2-methylphenyl)carbamoyl)quinolin-2-yl)oxy)ethyl)carbamate], the figures for the half-inhibitory concentration (IC50) in assay [1] and in assay [2] were 0.084 µM and 0.141 µM, respectively.

`Cc1ccc(NC(=O)c2ccc3c(c2)OCCO3)cc1NC(=O)c1ccc2nccc(C#N)c2c1` [Example 24, 4-cyano-N-(5-(2,3-dihydrobenzo[b][1,4]dioxine-6-carboxamido)-2-methylphenyl)quinoline-6-carboxamide]: the IC50 in assay [1] is 0.169 µM; in assay [2], 0.174 µM.

Take `Cc1ccc(NC(=O)c2ccc3c(c2)OCCO3)cc1NC(=O)c1ccc(OCc2ccccn2)nc1` [Example 25, N-(5-(2,3-dihydrobenzo[b][1,4]dioxine-6-carboxamido)-2-methylphenyl)-6-(pyridin-2-ylmethoxy)nicotinamide]: the values for the half-inhibitory concentration (IC50) in assay [1] and in assay [2] were 1.13 µM and 1.61 µM, respectively.

For the molecule `COc1ccc(C(=O)Nc2cc(NC(=O)c3ccc4c(c3)OCCO4)ccc2C)cc1C` [Example 26, N-(3-(4-methoxy-3-methylbenzamido)-4-methylphenyl)-2,3-dihydrobenzo[b][1,4]dioxine-6-carboxamide], the concentration for half-maximal inhibition (IC50) in assay [1] came out at 0.071 µM; in assay [2], 0.262 µM.

As for `COc1ccc(C(=O)Nc2cc(NC(=O)c3ccc4c(c3)OCCO4)ccc2C)cc1` [Example 27, N-(3-(4-methoxybenzamido)-4-methylphenyl)-2,3-dihydrobenzo[b][1,4]dioxine-6-carboxamide], the IC50 in assay [1] turned out to be 0.106 µM; in assay [2], 0.371 µM.

For the molecule `COc1ccc(C(=O)Nc2cc(NC(=O)c3ccc4c(c3)OCCO4)ccc2C)cc1Cl` [Example 28, N-(3-(3-chloro-4-methoxybenzamido)-4-methylphenyl)-2,3-dihydrobenzo[b][1,4]dioxine-6-carboxamide], the IC50 in assay [1] is 0.415 µM; in assay [2] it was 0.416 µM.

With `COc1ccc2cc(C(=O)Nc3cc(NC(=O)c4ccc5c(c4)OCCO5)ccc3C)ccc2n1` [Example 29, N-(5-(2,3-dihydrobenzo[b][1,4]dioxine-6-carboxamido)-2-methylphenyl)-2-methoxyquinoline-6-carboxamide], the results for the concentration for half-maximal inhibition (IC50) in assay [1] and in assay [2] were 0.626 µM and 0.499 µM, respectively.

With `CNC(=O)c1ccc(C(=O)Nc2cc(NC(=O)c3ccc4c(c3)OCCO4)ccc2C)cn1` [Example 33, N5-(5-(2,3-dihydrobenzo[b][1,4]dioxine-6-carboxamido)-2-methylphenyl)-N2-methylpyridine-2,5-dicarboxamide], the values for the concentration for half-maximal inhibition (IC50) in assay [1] and in assay [2] were 0.23 µM and 0.797 µM, respectively.

In the case of `Cc1ccc(NC(=O)c2ccc3c(c2)OCCO3)cc1NC(=O)c1ccc2c(c1)CCCC2` [Example 34, N-(4-methyl-3-(5,6,7,8-tetrahydronaphthalene-2-carboxamido)phenyl)-2,3-dihydrobenzo[b][1,4]dioxine-6-carboxamide], the figures for the concentration for half-maximal inhibition (IC50) in assay [1] and in assay [2] were 0.413 µM and 0.85 µM, respectively.

Take `Cc1ccc(NC(=O)c2ccc3c(c2)OCCO3)cc1NC(=O)c1ccc2nc(OCCCNC(=O)OC(C)(C)C)ccc2c1` [Example 35, tert-butyl (3-((6-((5-(2,3-dihydrobenzo[b][1,4]dioxine-6-carboxamido)-2-methylphenyl)carbamoyl)quinolin-2-yl)oxy)propyl)carbamate]: the results for the half-maximal inhibitory concentration (IC50) in assay [1] and in assay [2] were 0.432 µM and 0.867 µM, respectively.

As to `Cc1ccc(NC(=O)c2ccc3c(c2)OCCO3)cc1NC(=O)c1ccc2nccnc2c1` [Example 36, N-(5-(2,3-dihydrobenzo[b][1,4]dioxine-6-carboxamido)-2-methylphenyl)quinoxaline-6-carboxamide], the results for the half-maximal inhibitory concentration (IC50) in assay [1] and in assay [2] were 0.567 µM and 1.15 µM, respectively.

On to `COc1cc(C(=O)Nc2cc(NC(=O)c3ccc4c(c3)OCCO4)ccc2C)ccc1Br` [Example 41, N-(3-(4-bromo-3-methoxybenzamido)-4-methylphenyl)-2,3-dihydrobenzo[b][1,4]dioxine-6-carboxamide], for which the half-inhibitory concentration (IC50) in assay [1] worked out at 0.154 µM; in assay [2], 0.104 µM.

Regarding `COc1c(C)cc(C(=O)Nc2cc(NC(=O)c3ccc4c(c3)OCCO4)ccc2C)cc1C` [Example 42, N-(3-(4-methoxy-3,5-dimethylbenzamido)-4-methylphenyl)-2,3-dihydrobenzo[b][1,4]dioxine-6-carboxamide], the values for the IC50 in assay [1] and in assay [2] were 0.665 µM and 0.546 µM, respectively.

As to `Cc1ccc(NC(=O)c2ccc3c(c2)OCCO3)cc1NC(=O)c1cnc2ccncc2c1` [Example 43, N-(5-(2,3-dihydrobenzo[b][1,4]dioxine-6-carboxamido)-2-methylphenyl)-1,6-naphthyridine-3-carboxamide], the IC50 stood at 0.034 µM in assay [1] and 0.022 µM in assay [2].

Turning to `Cc1ccc(NC(=O)c2ccc3c(c2)OCCO3)cc1NC(=O)c1cnc2cnccc2c1` [Example 44, N-(5-(2,3-dihydrobenzo[b][1,4]dioxine-6-carboxamido)-2-methylphenyl)-1,7-naphthyridine-3-carboxamide], the IC50 in assay [1] stood at 0.024 µM; in assay [2] it was 0.011 µM.

Consider `Cc1ccc(NC(=O)c2ccc3c(c2)OCCO3)cc1NC(=O)c1cnc2ncccc2c1` [Example 45, N-(5-(2,3-dihydrobenzo[b][1,4]dioxine-6-carboxamido)-2-methylphenyl)-1,8-naphthyridine-3-carboxamide], for which the concentration for half-maximal inhibition (IC50) in assay [1] came out at 0.085 µM; in assay [2] it was 0.036 µM.

For the molecule `Cc1ccc(NC(=O)c2ccc3c(c2)OCCO3)cc1NC(=O)c1ccc2cnccc2c1` [Example 46, N-(5-(2,3-dihydrobenzo[b][1,4]dioxine-6-carboxamido)-2-methylphenyl)isoquinoline-6-carboxamide], the IC50 in assay [1] turned out to be 0.012 µM; in assay [2], 0.004 µM.

As for `Cc1ccc(NC(=O)c2ccc3c(c2)OCCO3)cc1NC(=O)c1cnc2ccccc2c1` [Example 47, N-(5-(2,3-dihydrobenzo[b][1,4]dioxine-6-carboxamido)-2-methylphenyl)quinoline-3-carboxamide], the half-inhibitory concentration (IC50) amounted to 0.012 µM in assay [1] and 0.004 µM in assay [2].

For `Cc1ccc(NC(=O)c2ccc3c(c2)OCCO3)cc1NC(=O)c1ccc2[nH]c(=O)ccc2c1` [Example 48, N-(5-(2,3-dihydrobenzo[b][1,4]dioxine-6-carboxamido)-2-methylphenyl)-2-oxo-1,2-dihydroquinoline-6-carboxamide], the half-inhibitory concentration (IC50) in assay [1] was found to be 0.172 µM; in assay [2], 0.141 µM.

One may read the IC50 as the concentration that inhibits the measured activity by half.

The values are drawn from patent publication US9701664B2, “Fused 1,4-dihydrodioxin derivatives as inhibitors of heat shock transcription factor 1” (Cancer Research Technology Limited, priority 2013, dated 2017).
